Experimental data reported in ChEMBL document CHEMBL1136181, “Differentially functionalized diamines as novel ligands for the NPY2 receptor” (Bioorg Med Chem Lett, 2003).

Biological target: T1, Neuropeptide Y receptor type 2 (Homo sapiens, UniProt P49146)
T1 sequence (P49146 whole entry): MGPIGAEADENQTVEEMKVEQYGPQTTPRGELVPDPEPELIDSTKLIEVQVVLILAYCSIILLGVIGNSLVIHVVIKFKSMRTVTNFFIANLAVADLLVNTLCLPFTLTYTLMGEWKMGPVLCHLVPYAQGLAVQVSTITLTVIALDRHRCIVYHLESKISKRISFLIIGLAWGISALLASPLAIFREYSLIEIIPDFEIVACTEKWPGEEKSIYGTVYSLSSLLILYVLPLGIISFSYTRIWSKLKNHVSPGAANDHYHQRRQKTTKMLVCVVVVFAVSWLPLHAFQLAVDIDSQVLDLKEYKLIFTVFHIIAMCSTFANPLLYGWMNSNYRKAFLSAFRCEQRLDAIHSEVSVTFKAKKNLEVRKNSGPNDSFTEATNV
Assay: Binding affinity against SMS-KAN cell membranes endogenously expressing Neuropeptide Y receptor type 2 using [125I]PYY as radioligand

| Compound | IC50 [µM] |
| --- | --- |
| CCCCc1ccccc1N(CCCN(C)C)C(=O)c1cc2ccccc2s1 | 2.2 |
| CN(C)CCCN(C(=O)c1cc2ccccc2s1)c1ccccc1NC(=O)c1ccccc1 | > 10 |
| CNCCCN(C(=O)c1cc2ccccc2s1)c1ccccc1SCc1ccccc1 | > 10 |
| CN(C)CCCN(C(=O)c1cc2ccccc2s1)c1ccccc1CCc1ccccc1 | > 10 |
| CN(C)CCCN(C(=O)[C@@H]1C[C@H]1c1ccccc1)c1ccccc1SCc1ccccc1 | 3.7 |
| CN(C)CCCN(C(=O)c1cc2ccccc2o1)c1ccccc1SCc1ccccc1 | > 10 |
| CN(C)CCCN(C(=O)c1sc2ccccc2c1Cl)c1ccccc1SCc1ccccc1 | > 10 |
| CN(C)CCCN(C(=O)/C=C/c1ccccc1)c1ccccc1SCc1ccccc1 | 10 |
| CN(C)CCCN(C(=O)c1cc2ccccc2s1)c1ccccc1-c1ccccc1 | > 10 |

Continued, values first:

| IC50 [µM] | Compound |
| --- | --- |
| > 10 | CN(C)CCCN(C(=O)c1cc2ccccc2s1)c1ccccc1Cc1ccccc1 |
| 1 | CC(C(=O)N(CCCN(C)C)c1ccccc1SCc1ccccc1)c1ccccc1 (stereo not drawn) |
| > 10 | CN(C)CCCCN(C(=O)c1cc2ccccc2s1)c1ccccc1SCc1ccccc1 |
| > 10 | CN(C)CCN(C(=O)c1cc2ccccc2s1)c1ccccc1SCc1ccccc1 |
